Measured values published in paper PMC5428509, “Irreversible inhibition of BTK kinase by a novel highly selective inhibitor CHMFL-BTK-11 suppresses inflammatory response in rheumatoid arthritis model” (Scientific Reports, 2017).

What was measured:
Assay in all cases: biochemical
Design in all cases: KinomeScan competition binding panel (DiscoveRx), percent of control at 1 uM
Details in all cases: read-out: Percent Control
[1] = target: T1, PFCDPK1(P.falciparum) (Plasmodium falciparum, UniProt P62344)
T1 construct: gene CDPK1

[2] = target: T2, ABL1(H396P)-phosphorylated (Homo sapiens, UniProt P00519, H396P)
T2 construct: phosphorylated
Summary of the method: (§1)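 Selectivity profiled across 456 kinases/mutants by KinomeScan binding technology.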

[3] = target: T3, ADCK4 (Homo sapiens, UniProt Q96D53)
T3 construct: gene COQ8B
Summary of the method: as §1

[4] = target: ANKK1 (Homo sapiens, UniProt Q8NFD2)
Summary of the method: as §1

[5] = target: CAMKK1 (Homo sapiens, UniProt Q8N5S9)
Summary of the method: as §1

[6] = target: CDKL3 (Homo sapiens, UniProt Q8IVW4)
Summary of the method: as §1

[7] = target: EPHB1 (Homo sapiens, UniProt P54762)
Summary of the method: as §1

[8] = target: GAK (Homo sapiens, UniProt O14976)
Summary of the method: as §1

[9] = target: GSK3A (Homo sapiens, UniProt P49840)
Summary of the method: as §1

[10] = target: GSK3B (Homo sapiens, UniProt P49841)
Summary of the method: as §1

[11] = target: T4, JNK2 (Homo sapiens, UniProt P45984)
T4 construct: gene MAPK9
Summary of the method: as §1

[12] = target: T5, LZK (Homo sapiens, UniProt O43283)
T5 construct: gene MAP3K13
Summary of the method: as §1

[13] = target: MARK2 (Homo sapiens, UniProt Q7KZI7)
Summary of the method: as §1

[14] = target: T6, MEK4 (Homo sapiens, UniProt P45985)
T6 construct: gene MAP2K4
Summary of the method: as §1

[15] = target: T7, MEK5 (Homo sapiens, UniProt Q13163)
T7 construct: gene MAP2K5
Summary of the method: as §1

[16] = target: MELK (Homo sapiens, UniProt Q14680)
Summary of the method: as §1

[17] = target: MERTK (Homo sapiens, UniProt Q12866)
Summary of the method: as §1

[18] = target: PAK4 (Homo sapiens, UniProt O96013)
Summary of the method: as §1

[19] = target: T8, PKAC-alpha (Homo sapiens, UniProt P17612)
T8 construct: gene PRKACA
Summary of the method: as §1

[20] = target: T9, PKAC-beta (Homo sapiens, UniProt P22694)
T9 construct: gene PRKACB
Summary of the method: as §1

[21] = target: PRKCQ (Homo sapiens, UniProt Q04759)
Summary of the method: as §1

[22] = target: SRPK3 (Homo sapiens, UniProt Q9UPE1)
Summary of the method: as §1

[23] = target: T10, TAK1 (Homo sapiens, UniProt O43318)
T10 construct: gene MAP3K7
Summary of the method: as §1

MELK, sequence (Q14680 whole entry): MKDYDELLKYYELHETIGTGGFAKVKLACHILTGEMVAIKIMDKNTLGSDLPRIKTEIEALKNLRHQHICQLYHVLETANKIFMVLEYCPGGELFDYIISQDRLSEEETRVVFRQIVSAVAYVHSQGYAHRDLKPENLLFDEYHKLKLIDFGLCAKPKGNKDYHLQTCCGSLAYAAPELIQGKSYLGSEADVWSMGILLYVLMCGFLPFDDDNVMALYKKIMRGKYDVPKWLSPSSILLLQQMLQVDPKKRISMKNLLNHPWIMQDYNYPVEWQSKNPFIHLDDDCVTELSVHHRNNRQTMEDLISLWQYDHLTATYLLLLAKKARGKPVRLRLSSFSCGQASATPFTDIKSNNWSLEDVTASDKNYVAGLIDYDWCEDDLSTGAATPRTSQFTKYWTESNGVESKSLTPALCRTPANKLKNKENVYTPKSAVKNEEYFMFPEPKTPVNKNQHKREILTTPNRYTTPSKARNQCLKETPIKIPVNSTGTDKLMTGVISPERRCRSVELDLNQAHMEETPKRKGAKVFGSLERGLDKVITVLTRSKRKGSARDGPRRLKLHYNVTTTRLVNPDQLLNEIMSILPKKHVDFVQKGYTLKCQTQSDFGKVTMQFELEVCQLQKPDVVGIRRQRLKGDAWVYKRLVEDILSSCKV
T10 sequence (O43318 whole entry): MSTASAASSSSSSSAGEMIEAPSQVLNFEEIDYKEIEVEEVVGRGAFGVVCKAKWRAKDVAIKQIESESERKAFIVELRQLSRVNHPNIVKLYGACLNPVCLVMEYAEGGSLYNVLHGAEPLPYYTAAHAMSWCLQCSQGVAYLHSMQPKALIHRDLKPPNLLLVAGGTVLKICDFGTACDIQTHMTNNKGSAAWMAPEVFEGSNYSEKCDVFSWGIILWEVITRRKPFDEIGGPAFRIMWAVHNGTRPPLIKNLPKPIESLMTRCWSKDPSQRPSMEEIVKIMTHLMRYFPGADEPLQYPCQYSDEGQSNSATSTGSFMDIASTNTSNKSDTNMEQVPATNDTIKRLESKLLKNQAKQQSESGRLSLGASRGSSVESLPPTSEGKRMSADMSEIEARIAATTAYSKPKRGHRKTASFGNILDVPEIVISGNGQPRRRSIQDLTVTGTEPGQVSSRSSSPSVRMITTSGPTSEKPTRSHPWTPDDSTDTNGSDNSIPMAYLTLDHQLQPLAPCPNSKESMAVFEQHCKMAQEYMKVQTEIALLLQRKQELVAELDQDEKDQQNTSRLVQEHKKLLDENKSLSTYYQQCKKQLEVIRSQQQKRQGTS
GAK, sequence (O14976 whole entry): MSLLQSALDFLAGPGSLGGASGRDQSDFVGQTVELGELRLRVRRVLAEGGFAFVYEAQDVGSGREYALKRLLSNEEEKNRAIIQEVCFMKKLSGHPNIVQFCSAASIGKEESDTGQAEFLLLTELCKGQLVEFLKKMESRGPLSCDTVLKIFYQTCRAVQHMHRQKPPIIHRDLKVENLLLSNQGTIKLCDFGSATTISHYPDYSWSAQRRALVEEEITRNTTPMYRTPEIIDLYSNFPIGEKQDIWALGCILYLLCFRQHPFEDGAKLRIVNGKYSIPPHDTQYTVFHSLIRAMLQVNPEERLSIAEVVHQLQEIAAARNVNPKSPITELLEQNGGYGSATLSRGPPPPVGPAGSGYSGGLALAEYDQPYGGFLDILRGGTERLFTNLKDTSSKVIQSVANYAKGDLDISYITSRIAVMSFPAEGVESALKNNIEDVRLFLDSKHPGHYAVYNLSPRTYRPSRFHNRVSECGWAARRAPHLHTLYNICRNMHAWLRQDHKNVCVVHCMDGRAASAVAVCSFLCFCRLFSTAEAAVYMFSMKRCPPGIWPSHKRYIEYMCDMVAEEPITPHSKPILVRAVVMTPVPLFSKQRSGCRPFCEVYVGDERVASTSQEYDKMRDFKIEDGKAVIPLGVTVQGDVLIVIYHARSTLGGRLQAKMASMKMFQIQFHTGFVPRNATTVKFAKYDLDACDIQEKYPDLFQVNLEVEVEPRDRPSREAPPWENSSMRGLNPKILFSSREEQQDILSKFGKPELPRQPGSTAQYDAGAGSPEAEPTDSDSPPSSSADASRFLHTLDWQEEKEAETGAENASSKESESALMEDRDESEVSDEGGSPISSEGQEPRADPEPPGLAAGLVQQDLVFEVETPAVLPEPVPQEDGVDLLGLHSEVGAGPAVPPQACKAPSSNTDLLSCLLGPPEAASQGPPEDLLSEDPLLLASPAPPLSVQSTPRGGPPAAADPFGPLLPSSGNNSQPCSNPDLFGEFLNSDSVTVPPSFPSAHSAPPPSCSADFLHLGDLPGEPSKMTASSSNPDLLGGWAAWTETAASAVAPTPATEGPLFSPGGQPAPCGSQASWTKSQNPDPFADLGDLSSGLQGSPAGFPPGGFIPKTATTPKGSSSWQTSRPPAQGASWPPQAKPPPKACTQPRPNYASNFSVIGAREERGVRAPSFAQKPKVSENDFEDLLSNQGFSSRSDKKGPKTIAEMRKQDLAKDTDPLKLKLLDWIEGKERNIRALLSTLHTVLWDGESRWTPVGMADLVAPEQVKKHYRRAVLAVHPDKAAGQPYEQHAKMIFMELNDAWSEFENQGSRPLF
EPHB1, sequence (P54762 whole entry): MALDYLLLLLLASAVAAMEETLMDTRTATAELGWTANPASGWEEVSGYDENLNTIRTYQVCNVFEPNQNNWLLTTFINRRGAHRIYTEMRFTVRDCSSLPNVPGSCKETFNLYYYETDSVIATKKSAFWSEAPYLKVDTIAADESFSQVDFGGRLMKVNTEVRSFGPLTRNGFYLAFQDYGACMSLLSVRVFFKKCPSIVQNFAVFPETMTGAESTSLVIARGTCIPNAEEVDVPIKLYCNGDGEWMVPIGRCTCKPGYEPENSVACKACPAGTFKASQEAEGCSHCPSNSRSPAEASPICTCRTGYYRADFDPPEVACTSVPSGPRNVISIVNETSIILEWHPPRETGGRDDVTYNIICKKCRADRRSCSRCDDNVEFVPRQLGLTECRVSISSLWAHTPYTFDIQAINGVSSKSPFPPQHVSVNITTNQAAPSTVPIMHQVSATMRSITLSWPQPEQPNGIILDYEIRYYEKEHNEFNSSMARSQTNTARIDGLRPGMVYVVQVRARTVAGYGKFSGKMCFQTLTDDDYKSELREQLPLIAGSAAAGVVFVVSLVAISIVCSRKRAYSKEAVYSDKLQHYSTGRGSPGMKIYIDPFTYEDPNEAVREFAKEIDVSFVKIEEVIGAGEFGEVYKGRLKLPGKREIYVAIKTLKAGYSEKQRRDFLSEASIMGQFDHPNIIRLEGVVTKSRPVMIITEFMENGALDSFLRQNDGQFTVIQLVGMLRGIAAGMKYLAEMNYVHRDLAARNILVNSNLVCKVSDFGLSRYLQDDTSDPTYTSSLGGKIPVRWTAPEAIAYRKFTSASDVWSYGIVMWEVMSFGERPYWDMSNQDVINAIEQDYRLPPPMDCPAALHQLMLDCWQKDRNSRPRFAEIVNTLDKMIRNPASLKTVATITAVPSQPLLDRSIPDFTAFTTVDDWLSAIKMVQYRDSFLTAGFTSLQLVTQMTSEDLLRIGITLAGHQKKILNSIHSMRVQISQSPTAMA
T3 sequence (Q96D53 whole entry): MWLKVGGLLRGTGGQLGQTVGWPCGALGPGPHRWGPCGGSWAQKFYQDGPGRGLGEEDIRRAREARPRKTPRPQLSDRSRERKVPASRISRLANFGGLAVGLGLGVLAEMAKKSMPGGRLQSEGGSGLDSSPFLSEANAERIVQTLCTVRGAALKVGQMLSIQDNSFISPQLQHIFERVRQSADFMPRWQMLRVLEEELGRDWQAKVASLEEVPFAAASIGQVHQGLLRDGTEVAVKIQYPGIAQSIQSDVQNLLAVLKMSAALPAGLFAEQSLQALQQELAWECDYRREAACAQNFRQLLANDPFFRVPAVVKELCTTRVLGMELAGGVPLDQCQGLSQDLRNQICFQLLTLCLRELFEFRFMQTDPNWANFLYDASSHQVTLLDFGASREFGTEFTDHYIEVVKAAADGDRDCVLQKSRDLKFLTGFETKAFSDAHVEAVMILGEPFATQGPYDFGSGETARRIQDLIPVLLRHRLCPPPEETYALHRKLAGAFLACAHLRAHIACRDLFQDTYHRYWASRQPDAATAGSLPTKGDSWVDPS
GSK3A, sequence (P49840 whole entry): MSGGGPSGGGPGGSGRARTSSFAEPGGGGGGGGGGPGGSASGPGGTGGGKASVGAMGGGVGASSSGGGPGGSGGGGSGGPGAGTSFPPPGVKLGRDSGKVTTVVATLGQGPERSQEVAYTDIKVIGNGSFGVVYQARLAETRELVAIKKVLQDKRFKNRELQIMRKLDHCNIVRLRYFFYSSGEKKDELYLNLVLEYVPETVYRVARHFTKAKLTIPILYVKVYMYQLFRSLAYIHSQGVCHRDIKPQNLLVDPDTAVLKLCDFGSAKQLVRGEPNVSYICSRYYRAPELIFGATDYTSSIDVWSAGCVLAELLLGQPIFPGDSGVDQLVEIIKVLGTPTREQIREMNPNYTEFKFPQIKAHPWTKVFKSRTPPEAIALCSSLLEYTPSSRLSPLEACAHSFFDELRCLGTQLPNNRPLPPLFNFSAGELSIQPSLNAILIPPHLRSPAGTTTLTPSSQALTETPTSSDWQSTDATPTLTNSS
GSK3B, sequence (P49841 whole entry): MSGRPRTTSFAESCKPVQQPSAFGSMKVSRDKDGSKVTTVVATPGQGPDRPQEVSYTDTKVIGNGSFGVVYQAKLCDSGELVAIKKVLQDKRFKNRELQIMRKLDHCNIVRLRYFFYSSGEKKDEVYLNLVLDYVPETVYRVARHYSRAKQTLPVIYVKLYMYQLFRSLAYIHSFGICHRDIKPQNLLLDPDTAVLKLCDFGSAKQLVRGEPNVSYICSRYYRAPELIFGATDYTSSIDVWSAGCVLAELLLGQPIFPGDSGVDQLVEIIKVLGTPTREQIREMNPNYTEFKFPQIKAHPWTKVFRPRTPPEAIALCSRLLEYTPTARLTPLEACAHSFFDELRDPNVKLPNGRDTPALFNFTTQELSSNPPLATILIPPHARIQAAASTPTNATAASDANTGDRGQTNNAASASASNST

SMILES: C=CC(=O)Nc1cc(-n2c(=O)ccc3cnc4ccc(-n5cccn5)cc4c32)ccc1C [CHMFL-BTK-11]
- remaining binding at 1 µM [1]: 97%
- remaining binding at 1 µM [2]: 100%
- remaining binding at 1 µM [3]: 100%
- remaining binding at 1 µM [4]: 81%
- remaining binding at 1 µM [5]: 78%
- remaining binding at 1 µM [6]: 90%
- remaining binding at 1 µM [7]: 100%
- remaining binding at 1 µM [8]: 100%
- remaining binding at 1 µM [9]: 90%
- remaining binding at 1 µM [10]: 100%
- remaining binding at 1 µM [11]: 100%
- remaining binding at 1 µM [12]: 100%
- remaining binding at 1 µM [13]: 92%
- remaining binding at 1 µM [14]: 100%
- remaining binding at 1 µM [15]: 80%
- remaining binding at 1 µM [16]: 73%
- remaining binding at 1 µM [17]: 100%
- remaining binding at 1 µM [18]: 95%
- remaining binding at 1 µM [19]: 98%
- remaining binding at 1 µM [20]: 100%
- remaining binding at 1 µM [21]: 100%
- remaining binding at 1 µM [22]: 96%
- remaining binding at 1 µM [23]: 98%
